“And” between values parts separate entries of the source, which are not always exact repeats. Equal values may be shown once. Toxic doses and inconclusive results are not listed.

The test system of this experiment is P388 leukemia ip, CD2F1 mice, survival T/C. Briefly: NCI In Vivo Anticancer Drug Screen. Data for tumor model P388 Leukemia (intraperitoneal) in CD2F1 (CDF1) mice. The note with it: endpoint: median survival time, higher = longer survival. The method in brief: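 Mice carrying the transplanted tumor received test compound or vehicle. Survival was recorded in each group, and the value is the treated-group measurement divided by that of the vehicle-treated control group.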

Where [1] appears, read: dose: 50.0 mg/kg/injection, schedule: Q01DX005 (ip), vehicle: saline with Tween-80.
The mark [2] stands for this setting: dose: 50.0 mg/kg/injection, schedule: Q01DX009 (ip), vehicle: saline.
Where [3] appears, read: dose: 100.0 mg/kg/injection, schedule: Q01DX005 (ip), vehicle: saline with Tween-80.
Setting [4] is: dose: 100.0 mg/kg/injection, schedule: Q01DX009 (ip), vehicle: saline.
[5] abbreviates: dose: 200.0 mg/kg/injection, schedule: Q01DX005 (ip), vehicle: saline with Tween-80.
Setting [6] is: dose: 200.0 mg/kg/injection, schedule: Q01DX009 (ip), vehicle: saline.
Setting [7] is: dose: 50.0 mg/kg/injection, schedule: Q01DX005 (ip), vehicle: Klucel (hydroxypropylcellulose) (HPC).
The mark [8] stands for this setting: dose: 100.0 mg/kg/injection, schedule: Q01DX005 (ip), vehicle: Klucel (hydroxypropylcellulose) (HPC).
Setting [9] is: dose: 200.0 mg/kg/injection, schedule: Q01DX005 (ip), vehicle: Klucel (hydroxypropylcellulose) (HPC).
[10] abbreviates: dose: 100.0 mg/kg/injection, schedule: Q01DX001 (ip), vehicle: saline with Tween-80.
Setting [11] is: dose: 200.0 mg/kg/injection, schedule: Q01DX001 (ip), vehicle: saline with Tween-80.
The mark [12] stands for this setting: dose: 400.0 mg/kg/injection, schedule: Q01DX001 (ip), vehicle: saline with Tween-80.
[13] abbreviates: dose: 50.0 mg/kg/injection, schedule: Q01DX009 (ip), vehicle: saline with Tween-80.
The mark [14] stands for this setting: dose: 100.0 mg/kg/injection, schedule: Q01DX009 (ip), vehicle: saline with Tween-80.
Setting [15] is: dose: 200.0 mg/kg/injection, schedule: Q01DX009 (ip), vehicle: saline with Tween-80.
Setting [16] is: dose: 60.0 mg/kg/injection, schedule: Q01DX005 (ip), vehicle: saline with Tween-80.
Setting [17] is: dose: 120.0 mg/kg/injection, schedule: Q01DX005 (ip), vehicle: saline with Tween-80.

Consider `NC(CS)C(=O)O` (stereo not given), for which the T/C is 101 % of control under setting [1]; 115 % of control under setting [2]; 107 % of control under setting [3]; 110 % of control under setting [4]; 110 % of control under setting [5]; 109 % of control under setting [6].

Turning to `CC(NNC(=S)N1CCC(c2ccccc2)CC1)c1ccc2ccccc2n1` (stereo not given), the T/C was 97 % of control under setting [7] and 105 % of control under setting [8].

Regarding `COc1ccc(OC)c2cc3c(cc12)C(=O)c1ccccc1C3=O`, the T/C under setting [7] is 87 % of control, the T/C under setting [8] was 88 % of control and the T/C under setting [9] was 91 % of control.

Take `CC(C)([CH2][Sn]([CH3])([Cl])[Cl])c1ccccc1`: the T/C was 99 % of control and 101 % of control (dose: 0.79 mg/kg/injection, schedule: Q04DX003 (ip), vehicle: saline with Tween-80); 99 % of control and 116 % of control and 98 % of control (dose: 1.56 mg/kg/injection, schedule: Q04DX003 (ip), vehicle: saline with Tween-80); 102 % of control and 111 % of control and 95 % of control (dose: 3.12 mg/kg/injection, schedule: Q04DX003 (ip), vehicle: saline with Tween-80); 104 % of control and 97 % of control and 98 % of control (dose: 6.25 mg/kg/injection, schedule: Q04DX003 (ip), vehicle: saline with Tween-80); 106 % of control (dose: 6.25 mg/kg/injection, schedule: Q04DX003 (ip), vehicle: saline).

Take `Brc1ccc2c3c(ccc2c1)OCCOCCOCCOCCOCCOc1ccc2cc(Br)ccc2c1-3`: the T/C reads like this: under setting [10], 104 % of control; under setting [11], 107 % of control; under setting [12], 104 % of control.

`Nn1c(-c2ccc(Cl)c(Cl)c2)nc2ccccc2c1=O`: the T/C is, setting by setting: under setting [13], 89 % of control; under setting [14], 99 % of control; under setting [15], 98 % of control.

Regarding `C=C1[C@H]2C[C@H]2[C@]2(C)C=C3OC(=O)C(C)=C3C[C@@H]12`, the T/C was 94 % of control (dose: 5.5 mg/kg/injection, schedule: Q01DX005 (ip), vehicle: Klucel (hydroxypropylcellulose) (HPC)); 98 % of control (dose: 11.0 mg/kg/injection, schedule: Q01DX005 (ip), vehicle: Klucel (hydroxypropylcellulose) (HPC)); 100 % of control (dose: 22.0 mg/kg/injection, schedule: Q01DX005 (ip), vehicle: Klucel (hydroxypropylcellulose) (HPC)); 94 % of control (dose: 44.0 mg/kg/injection, schedule: Q01DX005 (ip), vehicle: Klucel (hydroxypropylcellulose) (HPC)); 91 % of control (dose: 80.0 mg/kg/injection, schedule: Q01DX005 (ip), vehicle: Klucel (hydroxypropylcellulose) (HPC)).

As for `COC(=O)[C@@H]1CCCN1C(=O)C(=O)N1CCC[C@H]1C(=O)OC`, the T/C under setting [10] was 108 % of control, the T/C under setting [11] is 103 % of control and the T/C under setting [12] is 103 % of control.

Turning to `O=c1c(N=Nc2ccccc2Cl)c(O)n(-c2ccccc2Cl)c(=S)n1-c1ccc(Cl)cc1`, the T/C (dose: 100.0 mg/kg/injection, schedule: Q01DX001 (ip), vehicle: Klucel (hydroxypropylcellulose) (HPC)) is 109 % of control; the T/C (dose: 200.0 mg/kg/injection, schedule: Q01DX001 (ip), vehicle: Klucel (hydroxypropylcellulose) (HPC)) is 104 % of control; the T/C (dose: 400.0 mg/kg/injection, schedule: Q01DX001 (ip), vehicle: Klucel (hydroxypropylcellulose) (HPC)) is 96 % of control.

As for `Cn1cccc/c1=N\N`, the T/C (dose: 100.0 mg/kg/injection, schedule: Q04DX002 (ip), vehicle: saline) is 100 % of control and the T/C (dose: 200.0 mg/kg/injection, schedule: Q04DX002 (ip), vehicle: saline) was 99 % of control.

As for `O=C1CCC(c2ccccc2)=NN1`, the T/C reads like this: under setting [2], 100 % of control; under setting [4], 106 % of control; under setting [6], 103 % of control; (dose: 400.0 mg/kg/injection, schedule: Q01DX009 (ip), vehicle: saline) 97 % of control.

With `O=C(NCCN1CCN2Cc3[nH]c4ccccc4c3CC2C1)c1ccc(Cl)cc1` (stereo not given), the T/C runs as follows: (dose: 60.0 mg/kg/injection, schedule: Q01DX005 (ip), vehicle: saline) 102 % of control; (dose: 120.0 mg/kg/injection, schedule: Q01DX005 (ip), vehicle: saline) 97 % of control; (dose: 240.0 mg/kg/injection, schedule: Q01DX005 (ip), vehicle: saline) 90 % of control.

For `O=[N+]([O-])c1cc2c(cc1S(=O)(=O)O)C1C(C3C2C2(Cl)C(Cl)=C(Cl)C3(Cl)C2(Cl)Cl)C2(Cl)C(Cl)=C(Cl)C1(Cl)C2(Cl)Cl` (stereo not given), the T/C by setting is: under setting [2], 101 % of control; under setting [4], 98 % of control.

`CNC(=O)Oc1[nH]c(=O)ncc1I`: the T/C (dose: 50.0 mg/kg/injection, schedule: Q04DX002 (ip), vehicle: saline with Tween-80) is 100 % of control; the T/C (dose: 100.0 mg/kg/injection, schedule: Q04DX002 (ip), vehicle: saline with Tween-80) was 108 % of control and 109 % of control and 110 % of control; the T/C (dose: 200.0 mg/kg/injection, schedule: Q04DX002 (ip), vehicle: saline with Tween-80) was 105 % of control and 116 % of control.

For the molecule `COc1ccc(C2=NC(C)(C)CO2)cc1C`, the T/C is 103 % of control under setting [1], 103 % of control under setting [3] and 94 % of control under setting [5].

In the case of `CC(C)(C)SSC(=S)C(c1ccccc1)c1ccccc1`, the T/C was 105 % of control (dose: 50.0 mg/kg/injection, schedule: Q01DX005 (ip), vehicle: saline + Tween-80 + alcohol); 107 % of control (dose: 100.0 mg/kg/injection, schedule: Q01DX005 (ip), vehicle: saline + Tween-80 + alcohol); 96 % of control (dose: 200.0 mg/kg/injection, schedule: Q01DX005 (ip), vehicle: saline + Tween-80 + alcohol).

As for `O=C(/N=C1\N=Nc2nc(C3(c4nc5n(c4O)/C(=N/C(=O)Nc4ccc(Cl)cc4)N=N5)CCCC3=O)c(O)n21)Nc1ccc(Cl)cc1` (stereo not given), the T/C under setting [16] was 91 % of control and the T/C under setting [17] is 86 % of control.

Consider `c1ccc2c(NCCCCCCCNc3c4ccccc4nc4ccccc34)c3ccccc3nc2c1`, for which the T/C was 157 % of control (dose: 2.5 mg/kg/injection, schedule: Q01DX009 (ip), vehicle: other); 155 % of control and 163 % of control and 175 % of control (dose: 5.0 mg/kg/injection, schedule: Q01DX009 (ip), vehicle: other); 112 % of control (dose: 10.0 mg/kg/injection, schedule: Q01DX009 (ip), vehicle: other).

With `Cc1ccc(C)c(CCNC=O)c1`, the T/C runs as follows: (dose: 25.0 mg/kg/injection, schedule: Q01DX009 (ip), vehicle: saline with Tween-80) 100 % of control; under setting [13], 110 % of control; under setting [14], 98 % of control; under setting [15], 103 % of control.

For the molecule `O=[N+]([O-])c1ccc(N/N=C/c2ccnc3ccccc23)cc1`, the T/C by setting is: (dose: 100.0 mg/kg/injection, schedule: Q01DX009 (ip), vehicle: Klucel (hydroxypropylcellulose) (HPC)) 95 % of control; (dose: 200.0 mg/kg/injection, schedule: Q01DX009 (ip), vehicle: Klucel (hydroxypropylcellulose) (HPC)) 86 % of control; (dose: 400.0 mg/kg/injection, schedule: Q01DX009 (ip), vehicle: Klucel (hydroxypropylcellulose) (HPC)) 95 % of control.

For `Cc1ccccc1C(=O)NC1c2ccccc2Oc2ccccc21`, the T/C was 100 % of control under setting [1], 100 % of control under setting [3] and 100 % of control under setting [5].

For the molecule `O=[N+]([O-])c1ccc2[nH]c3cnccc3c2c1`, the T/C is 106 % of control (dose: 12.5 mg/kg/injection, schedule: Q01DX009 (ip), vehicle: other); 105 % of control (dose: 25.0 mg/kg/injection, schedule: Q01DX009 (ip), vehicle: other); 108 % of control (dose: 50.0 mg/kg/injection, schedule: Q01DX009 (ip), vehicle: other); 107 % of control (dose: 100.0 mg/kg/injection, schedule: Q01DX009 (ip), vehicle: other).

Regarding `COc1cccc(C2OC3=C(Nc4ccc([N+](=O)[O-])cc4N3)C2=O)c1` (stereo not given), the T/C was 102 % of control under setting [7], 101 % of control under setting [8] and 96 % of control under setting [9].

Turning to `CCOC(=O)C1=C(NC23CC4CC(CC(C4)C2)C3)OCC1=O`, the T/C under setting [16] was 107 % of control and the T/C under setting [17] was 110 % of control.

With `O=C(CCCCC(=O)N/N=C/c1ccco1)N/N=C/c1ccco1`, the T/C is 99 % of control under setting [16]; 94 % of control under setting [17]; 91 % of control (dose: 240.0 mg/kg/injection, schedule: Q01DX005 (ip), vehicle: saline with Tween-80).
